The subject of series [1] is tumor cell lines with wild-type KRAS genotype. Kind of series: Concentration-dependent cytotoxicity by MTT analysis. As to conditions: wild-type KRAS cells, concentrations up to 100 μM. Type of series: cell-based.
In series [2] the test system is tumor cell lines with KRAS variant genotype. Described as above. Type of series: cell-based. As to conditions: KRAS variant cells.
A short description of series [3]: Pharmacokinetic analysis in cynomolgus monkeys. Type of series: in vivo. The settings on record: intravenous, equivalent to 1 mg/kg doxorubicin. On the procedure:
Blood samples were collected at 15, 30, 45, 60, and 90 min intervals, and then again at 2, 3, 4, 6, 8, 12, 24, 48, 72, 96, 120, 144, and 168 h. The blood samples were stabilized with sodium citrate and then cryocentrifuged at 2000×g for 15 min to obtain plasma. 200 μl of the plasma sample was added to a 96-well black microplate and the fluorescence of doxorubicin was measured at 485/590 nm. The reference was fresh plasma and the fluorescence was measured in the same manner.

The nature of series [4]: Pharmacokinetic analysis in rats. Type of series: in vivo, Sprague-Dawley rats. As to conditions: equivalent to 1 mg/kg doxorubicin; for half-life: Sprague-Dawley, rat, plasma, iv, 1 mg/kg. How it is done: Blood samples were collected at 5, 15, 30, 60, and 90 min intervals and then again at 2, 4, 8, 12, 24, 48, 72, 96, and 144 h. The blood samples were stabilized with sodium citrate and then cryocentrifuged at 2000×g for 15 min to obtain plasma. 200 μl of the plasma sample was placed in a 96-well black microplate and the fluorescence of doxorubicin was measured at 485/590 nm. The reference was fresh plasma and the fluorescence was measured in the same manner.

Series [5] concerns cell lines with KRAS variant genotype (Mia-paca2, AsPC1, MDA-MB231, CT26, HCT116, H2122, A549). Description: Tumor growth in mice inoculated with wild-type KRAS or KRAS variant tumor cells. The settings on record: intravenous every 3 days, equivalent to 1, 5 and 10 mg/kg doxorubicin, 1 month. The format is in vivo, C3H/HeN mice. How it is done: The maleimide-KGDEVD-PABC-doxorubicin was administered intravenously every 3 days at doses equivalent to 1, 5, and 10 mg/kg of doxorubicin, respectively, and then observed for 1 month. […] Therefore, the prodrug conjugate according to one embodiment of the present invention is not expected to have significant side effects.

Series [6] has as its system tumor cell lines with PTEN protein loss genotype. Description: Concentration-dependent cytotoxicity by MTT analysis. The format is cell-based. The settings on record: PTEN protein loss cells, up to 100 μM.
Series [7] relates to tumor cell lines with wild-type PTEN protein genotype. The series is described as above. The format is cell-based. As to conditions: PTEN wild-type cells, up to 100 μM.
Series [8] has as its system tumor cells having KRAS variant genotype (Mia-paca2). Description: Tumor inhibition compared with Aldoxorubicin in mice implanted with KRAS variant tumor cells. The format is in vivo, C3H/HeN mice. As to conditions: Mia-paca2, intravenous every 3 days, equivalent to 5 mg/kg doxorubicin, 1 month. An excerpt: Using C3H/HeN mice implanted with tumor cells having KRAS variant genotype (Mia-paca2), the tumor inhibition effect of the maleimide-KGDEVD-PABC-doxorubicin (MPD1) synthesized in Example 1 of the present invention, the maleimide-KGDVED-PABC-doxorubicin (EMC-KGDVED-DOX) with different peptide sequence, and Aldoxorubicin, a conventional doxorubicin-based anticancer drug which is linked to a maleimide so that it binds to albumin in plasma upon administration and increases half-life, were compared (FIGS. 19 and 20).

Series [9] has as its target T1, human serum albumin (HSA) (Homo sapiens, UniProt P02768).
T1 construct: purchased Sigma-Aldrich
Kind of series: Conjugate binding with human serum albumin, HPLC analysis. On the procedure:
The maleimide-KGDEVD-PABC-doxorubicin synthesized in Example 1 was then added to a concentration of 100 μM and incubated at room temperature. The samples were analyzed by analytical HPLC (FIG. 1). (KGDEVD corresponds to SEQ ID NO: 32)

Series [10] deals with T2, serum albumin in human blood (human plasma sample) (Homo sapiens, UniProt P02768).
T2 construct: from tissue; host or cells: human plasma
Description: Conjugate binding with serum albumin in human plasma, HPLC analysis. On the procedure:
The conjugation binding of maleimide-KGDEVD-PABC-doxorubicin with HSA was completed in 3 min. However, when plasma was pre-incubated with 4-maleimidobutyric acid which has a thiol-bound maleimide functional group, prior to incubation with maleimide-KGDEVD-PABC-doxorubicin no, binding of maleimide-KGDEVD-PABC-doxorubicin to plasma was observed even after 1 h as in the previous experiment conducted with serum.

For series [11], the system named is cancer cell groups with PTEN protein loss genotype (H1299, MDA-MB436). Description: Tumor growth in mice inoculated with PTEN protein loss tumor cells. Type of series: in vivo, C3H/HeN mice. As to conditions: intravenous every 3 days, equivalent to 1, 5 and 10 mg/kg doxorubicin, 1 month; compared to the control group. How it is done: The maleimide-KGDEVD-PABC-doxorubicin was administered intravenously every 3 days at concentrations equivalent to 1, 5, and 10 mg/kg of doxorubicin, respectively, and observed for 1 month.

The target in series [12] is HSA-maleimide-KGDEVD-PABC-doxorubicin, P02768.
For series [13], the target named is HSA-Maleimide-KGDVED-PABC-doxorubicin, P02768.

*1 amine or outer side, *2 acyl side, *3 side chain or, on linkers, in order; H or OH if unused. Where a SMILES comes first, the peptide text is derived from it. [ ]: non-standard residue; d: D form. The star is where a group is joined. Doxorubicin(3'-N) = COc1cccc2c1C(=O)c1c(O)c3c(c(O)c1C2=O)C[C@@](O)(C(=O)CO)C[C@@H]3O[C@H]1C[C@H](N*)[C@H](O)[C@H](C)O1; Hexanoyl(6-maleimido) = O=C1C=CC(=O)N1CCCCCC(=O)*; PABC = O=C(OCc1ccc(N[*:1])cc1)[*:2]

Take `COc1cccc2c1C(=O)c1c(O)c3c(c(O)c1C2=O)C[C@@](O)(C(=O)CO)C[C@@H]3O[C@H]1C[C@H](NC(=O)OCc2ccc(NC(=O)[C@H](CC(=O)O)NC(=O)[C@@H](NC(=O)[C@H](CCC(=O)O)NC(=O)[C@H](CC(=O)O)NC(=O)CNC(=O)[C@H](CCCCNC(=O)CCCCCN3C(=O)C=CC3=O)NC(C)=O)C(C)C)cc2)[C@H](O)[C@H](C)O1` [maleimide-KGDEVD-PABC-doxorubicin, Ac-Lys(EMC)-Gly-Asp-Glu-Val-Asp-PABC-DOX] (Ac-K(Hexanoyl(6-maleimido))GDEVD[PABC]-{Doxorubicin(3'-N)}): the IC50 entry is on record as “generally higher” in series [1] and “lower” in series [2]. Besides, the half-life in series [3] (cynomolgus monkey, in vivo, read-out: terminal half-life) is over 106 h; in series [4] (read-out: half-life) it was over 19 h; in series [4] (read-out: terminal half-life), 0.5 h. In addition, the “time detectable in plasma after administration” value in series [3] was found to be 7 days. Also, the “time remained active in plasma after administration” value in [4] (intravenous) was 6 days. In addition, in series [4] (intravenous), the “time until plasma concentrations decreased below the detection limit of 5 ng/ml” value was at most 4 h. Moreover, the tumor growth inhibition result in series [5] (KRAS variant versus wild-type KRAS tumors) is on record as “better tumor growth inhibition than those with wild-type KRAS genotype”. In series [5] (wild-type KRAS and KRAS variant tumors), the “effect on body weight of the experimental animals” value is reported as “none of the drugs had a significant effect on the body weight”. Also, the “IC50 values based on doxorubicin” value in series [6] is recorded as “higher IC50 values”; in series [7], “lower IC50 values”. Also, the “in vivo anticancer effects (tumor inhibition)” value in [8] is “anticancer effects similar to those of Aldoxorubicin”. In series [9] (HSA 700 μM in PBS, conjugate 100 μM, room temperature), the “time to complete conjugate binding with HSA” value came to 3 min. In addition, the “binding to HSA pre-incubated with 4-maleimidobutyric acid” value in [9] (HSA pre-incubated with 4-maleimidobutyric acid, after 1 h) was “no binding”. Also, in [10] (human plasma, conjugate 100 μM, room temperature), the “time to complete conjugation binding with HSA in human plasma” value is recorded as 3 min. Further, in [10] (plasma pre-incubated with 4-maleimidobutyric acid, after 1 h), the “binding to plasma pre-incubated with 4-maleimidobutyric acid” value is “no, binding”. For the same molecule, the tumor inhibition entry in series [11] was “greater tumor inhibition”.
On to `COc1cccc2c1C(=O)c1c(O)c3c(c(O)c1C2=O)C[C@@](O)(C(=O)CO)C[C@@H]3O[C@H]1C[C@H](NC(=O)OCc2ccc(NC(=O)[C@H](CC(=O)O)NC(=O)[C@@H](NC(=O)[C@H](CCC(=O)O)NC(=O)[C@H](CC(=O)O)NC(=O)CNC(=O)[C@H](CCCCN)NC(C)=O)C(C)C)cc2)[C@H](O)[C@H](C)O1` [AcKGDEVD-PABC-doxorubicin, Ac-Lys-Gly-Asp-Glu-Val-Asp-PABC-DOX, reference compound] (Ac-KGDEVD[PABC]-{Doxorubicin(3'-N)}), for which the “time until plasma concentration decreased below the detection limit of 5 ng/ml” value in series [3] was at most 6 h.

B1: recombinant human caspase-3 (protein)
chain: SGISLDNSYKMDYPEMGLCIIINNKNFHKSTGMTSRSGTDVDAANLRETFRNLKYEVRNKNDLTREEIVELMRDVSKEDHSKRSSFVCVLLSHGEEGIIFGTNGPVDLKKITNFFRGDRCRSLTGKPKLFIIQACRGTELDCGIETDSGVDDDMACHKIPVEADFLYAYSTAPGYYSWRNSKDGSWFIQSLCAMLKQYADKLEFMHILTRVNRKVATEFESFSFDATFHAKKQIPCIVSMLTKELYFYH
In the case of B1, the “cleavage and release of doxorubicin, HPLC” value is “Doxorubicin was cleaved and isolated from the HSA-maleimide-KGDEVD-PABC-doxorubicin conjugate within 1 h” in series [12]; “no cleavage was observed for the HSA-Maleimide-KGDVED-PABC-doxorubicin conjugate with a different peptide amino acid sequence” in [13].

The values above are taken from patent US20250302981A1, “NOVEL USE OF ANTICANCER AGENT PRODRUG CONJUGATE” (UNIVERSITY OF ULSAN FOUNDATION FOR INDUSTRY COOPERATION, priority 2020, published 2025).
